From patent US12630528B2, “Amino aryl derivative useful as diacylglycerol acyltransferase 2 inhibitor and use thereof” (LG CHEM, LTD., priority 2019, dated 2026)

Molecular target: T1, human DGAT2 (Homo sapiens, UniProt Q96PD7)
T1 construct: FLAG (DYKDDDDK); made in house; host or cells: Sf-21 insect cells (BacPAK baculovirus system); membrane fraction used
T1 sequence (Q96PD7 1-388): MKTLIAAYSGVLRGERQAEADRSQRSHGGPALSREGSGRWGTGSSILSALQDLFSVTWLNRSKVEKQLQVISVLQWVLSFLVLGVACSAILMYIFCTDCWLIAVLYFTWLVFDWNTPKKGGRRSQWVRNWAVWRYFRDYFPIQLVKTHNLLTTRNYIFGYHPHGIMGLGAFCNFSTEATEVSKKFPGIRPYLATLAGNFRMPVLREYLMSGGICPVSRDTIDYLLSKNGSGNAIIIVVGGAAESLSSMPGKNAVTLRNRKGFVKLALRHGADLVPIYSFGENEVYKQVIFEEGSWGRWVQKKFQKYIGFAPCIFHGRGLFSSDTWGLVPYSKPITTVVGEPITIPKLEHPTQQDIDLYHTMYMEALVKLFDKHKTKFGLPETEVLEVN
Assay: DGAT2 enzyme activity inhibition, Phospholipid FlashPlate SPA
Assay type: biochemical
Details: recombinant human DGAT2 membrane protein from Sf-21 cells; inhibition of [14C]-TG production; 37° C.
Protocol: In order to prepare the pBacPAK9-DGAT2, which is DGAT2 expression vector, the human DGAT2 gene amplified by polymerase chain reaction (PCR) was cloned into the EcoR1 and Xho1 sites of the pBacPAK9 (clonctech) vector. The nucleotide sequence of the primers used in PCR was the forward primer 5′ […] (SEQ. ID. NO: 2). The composition of the reaction solution was to contain 50 ng of cDNA clone (OriGene), 200 μM of dATP, dCTP, dTTP, dGTP, 200 nM of each primer, 1 unit of Tag DNA Polymerase (Toyobo), 1×PCR buffer, and the final volume was adjusted to 20 μl. The reaction conditions were denatured at 95° C. for 5 minutes, followed by 30 times of 94° C. for 20 seconds, 60° C. for 20 seconds, and 72° C. for 90 seconds, followed by further reaction at 72° C. for 7 minutes.
Recombinant human DGAT2 protein was expressed in Sf-21 cells, which are insect cells, by using the BacPack baculovirus expression system (Clontech). The brief manufacturing process is as follows. First, the pBacPAK9-DGAT2 expression vector was transfected with BacPAK6 virus DNA (Bsu36I digest) into sf21 cells using Bacfectin to prepare a recombinant DGAT2 expressing baculovirus. The thus prepared baculovirus was infected with Sf-21 cells at 10 MOI (multiplicity of infection), and after 72 hours, infected insect cells were collected and membrane proteins were isolated. For membrane protein separation, the cell pellet was dissolved in a sucrose solution containing 250 mM sucrose, 10 mM Tris (pH 7.4), and 1 mM ethylenediamine-tetraacetic acid (EDTA), and then homogenized by using a dounce homogenizer, and the supernatant was taken by centrifuging at 600×g for 15 minutes, and centrifuged at 100,000×g for 1 hour to discard the supernatant, and the remaining pellet was resuspended in 20 mM HEPES buffer (pH 7.4). The prepared DGAT2 overexpressing membrane protein was dispensed in 100 μl and stored at −80° C. until use. Protein concentration was quantified by using the BCA Protein Assay Kit (Thermo Scientific).
In vitro DGAT2 analysis was performed using a Phospholipid Flash Plate (PerkinElmer) based on the principle of SPA (Scintilation Proximity Assay). First, DGAT2 inhibition compounds serially diluted 5 times from 3 nM to 10 μM (final concentration, 1% DMSO) were mixed in a buffer solution containing 2 μg DGAT2-membrane protein and 20 mM HEPES, 20 mM MgCl2, 1 mg/mL BSA, 50 μM 1,2 sn-oleoyl glycerol (Sigma), put in a 96-well flash plate (FlashPlate) and reacted at 37° C. for 20 minutes, and then 1 μM [14C] ole oil CoA (PerkinElmer, NEC651050UC) was added to be a final volume of 100 μL and further reacted at 37° C. for 15 minutes. After the enzymatic reaction was completed, 100 μL of isopropanol was added, the plate was sealed with a film, and the plate was shaken slowly in a plate shaker. The next day, the amplified scintillation signal (cpm) in Topcounter (Packard) was measured to measure the degree of production of [14C]-labeled triacyl glycerol (TG) as a reaction product. The measured value when the compound was not treated was used as a positive control, and the measured value of the compound treated group was calculated as a relative % to measure the inhibition effect of the compound on TG production.

Row | Compound | IC50 [µM]
1 | CCOc1ccccc1O[C@@H]1CCCN(c2cncc(Nc3cccc(N4CCC(C(C)(C)C(=O)O)CC4)n3)n2)C1 [Example 58, (R)-2-(1-(6-((6-(3-(2-ethoxyphenoxy)piperidin-1-yl)pyrazin-2-yl)amino)pyridin-2-yl)piperidin-4-yl)-2-methylpropanoic Acid] | 0.31
2 | CCOc1ccccc1O[C@@H]1CCCN(c2cncc(Nc3nc4ccc(C(C)(C)C(=O)O)cc4o3)n2)C1 [Example 17, (R)-2-(2-((6-(3-(2-ethoxyphenoxy)piperidin-1-yl)pyrazin-2-yl)amino)benzo[d]oxazol-6-yl)-2-methylpropanoic Acid] | 1.3
3 | CCOc1ccccc1O[C@@H]1CCCN(c2cncc(Nc3nc4cc(CC(C)(C)C(=O)O)ccc4o3)n2)C1 [Example 14, (R)-3-(2-((6-(3-(2-ethoxyphenoxy)piperidin-1-yl)pyrazin-2-yl)amino)benzo[d]oxazol-5-yl)-2,2-dimethylpropanoic Acid] | 3.1
4 | CCOc1ccccc1O[C@@H]1CCCN(c2cncc(Nc3ccnc(-c4cccc(C(C)(C)C(=O)O)c4)n3)n2)C1 [Example 168, (R)-2-(3-(4-((6-(3-(2-ethoxyphenoxy)piperidin-1-yl)pyrazin-2-yl)amino)pyrimidin-2-yl)phenyl)-2-methylpropanoic Acid] | 0.42
5 | CCOc1ccccc1O[C@@H]1CCCN(c2cccc(Nc3cccc(-c4cccc(CC(C)(C)C(=O)O)c4)n3)n2)C1 [Example 65, (R)-3-(3-(6-((6-(3-(2-ethoxyphenoxy)piperidin-1-yl)pyridin-2-yl)amino)pyridin-2-yl)phenyl)-2,2-dimethylpropanoic Acid] | 1.5
6 | CCOc1ccccc1O[C@@H]1CCCN(c2cncc(Nc3nccc(-c4ccc(C(C)(C)C(=O)O)cc4)n3)n2)C1 [Example 143, (R)-2-(4-(2-((6-(3-(2-ethoxyphenoxy)piperidin-1-yl)pyrazin-2-yl)amino)pyrimidin-4-yl)phenyl)-2-methylpropanoic Acid] | 0.2
7 | CCOc1ccccc1O[C@@H]1CCCN(c2cncc(Nc3nccc(N4CCC[C@@H](CCC(=O)O)C4)n3)n2)C1 [Example 130, 3-((S)-1-(2-((6-((R)-3-(2-ethoxyphenoxy)piperidin-1-yl)pyrazin-2-yl)amino)pyrimidin-4-yl)piperidin-3-yl)propanoic Acid] | 2.1
8 | CCOc1ccccc1O[C@@H]1CCCN(c2cncc(Nc3nc4ccc(S(C)(=O)=O)cc4s3)n2)C1 [Example 7, (R)—N-(6-(3-(2-ethoxyphenoxy)piperidin-1-yl)pyrazin-2-yl)-6-(methanesulfonyl)benzo[d]thiazol-2-amine] | 8.8
9 | CCOc1ccccc1O[C@@H]1CCCN(c2cncc(Nc3cccc(N4CCC[C@@H](C(=O)O)C4)n3)n2)C1 [Example 55, (R)-1-(6-((6-((R)-3-(2-ethoxyphenoxy)piperidin-1-yl)pyrazin-2-yl)amino)pyridin-2-yl)piperidine-3-carboxylic Acid] | 0.86
10 | CCOc1cccnc1O[C@@H]1CCCN(c2cncc(Nc3cccc(-c4cccc(CC(C)(C)C(=O)O)c4)n3)n2)C1 [Example 64, (R)-3-(3-(6-((6-(3-((3-ethoxypyridin-2-yl)oxy)piperidin-1-yl)pyrazin-2-yl)amino)pyridin-2-yl)phenyl)-2,2-dimethylpropanoic Acid] | 0.13
11 | CCOc1ccccc1O[C@@H]1CCCN(c2cncc(Nc3nccc(-c4cccc(CC(=O)O)c4)n3)n2)C1 [Example 140, (R)-2-(3-(2-((6-(3-(2-ethoxyphenoxy)piperidin-1-yl)pyrazin-2-yl)amino)pyrimidin-4-yl)phenyl)acetic Acid] | 0.15
12 | CCOc1ccccc1O[C@@H]1CCCN(c2cncc(Nc3cccc(-c4ccc(NC(C)(C)C(=O)O)cc4)n3)n2)C1 [Example 77, (R)-2-((4-(6-((6-(3-(2-ethoxyphenoxy)piperidin-1-yl)pyrazin-2-yl)amino)pyridin-2-yl)phenyl)amino)-2-methylpropanoic Acid] | 0.25
13 | CCOc1ccccc1O[C@@H]1CCCN(c2cncc(Nc3cccc(Oc4cccc(C(C)(C)C(=O)O)c4)n3)n2)C1 [Example 91, (R)-2-(3-((6-((6-(3-(2-ethoxyphenoxy)piperidin-1-yl)pyrazin-2-yl)amino)pyridin-2-yl)oxy)phenyl)-2-methylpropanoic Acid] | 0.34
14 | CCOc1ccccc1O[C@@H]1CCCN(c2cncc(Nc3cc(-c4ccc(C(C)(C)C(=O)O)cc4)ccn3)n2)C1 [Example 43, (R)-2-(4-(2-((6-(3-(2-ethoxyphenoxy)piperidin-1-yl)pyrazin-2-yl)amino)pyridin-4-yl)phenyl)-2-methylpropanoic Acid] | 3.1
15 | CCOc1cccnc1O[C@@H]1CCCN(c2cncc(Nc3nccc(Oc4ccc(CC(=O)O)cc4)n3)n2)C1 [Example 163] | 0.86
16 | CCOc1ccccc1O[C@@H]1CCCN(c2cncc(Nc3nc4ccccc4o3)n2)C1 [Example 10, (R)—N-(6-(3-(2-ethoxyphenoxy)piperidin-1-yl)pyrazin-2-yl)benzo[d]oxazol-2-amine] | 0.25
17 | CCOc1ccccc1O[C@@H]1CCCN(c2cncc(Nc3nccc(N4CCC[C@@H](CC(=O)O)C4)n3)n2)C1 [Example 128, 2-((S)-1-(2-((6-((R)-3-(2-ethoxyphenoxy)piperidin-1-yl)pyrazin-2-yl)amino)pyrimidin-4-yl)piperidin-3-yl)acetic Acid] | 0.16
18 | CCOc1ccccc1O[C@@H]1CCCN(c2cncc(Nc3nc(C)c(C)s3)n2)C1 [Example 2, (R)—N-(6-(3-(2-ethoxyphenoxy)piperidin-1-yl)pyrazin-2-yl)-4,5-dimethylthiazol-2-amine] | 6.5
19 | CCOc1cccnc1O[C@@H]1CCCN(c2cncc(Nc3cccc(Oc4cccc(C(C)(C)C(=O)O)c4)n3)n2)C1 [Example 92, (R)-2-(3-((6-((6-(3-((3-ethoxypyridin-2-yl)oxy)piperidin-1-yl)pyrazin-2-yl)amino)pyridin-2-yl)oxy)phenyl)-2-methylpropanoic Acid] | 0.3
20 | CCOc1ccccc1O[C@@H]1CCCN(c2cncc(Nc3cccc(N4CCC(C(=O)O)C4)n3)n2)C1 (stereo partly drawn) [Example 52, 1-(6-((6-((R)-3-(2-ethoxyphenoxy)piperidin-1-yl)pyrazin-2-yl)amino)pyridin-2-yl)pyrrolidine-3-carboxylic Acid] | 0.73
21 | CCOc1ccccc1O[C@@H]1CCCN(c2cncc(Nc3cccc(-c4ccc(C(C)(C)C(=O)O)cc4)n3)n2)C1 [Example 61, (R)-2-(4-(6-((6-(3-(2-ethoxyphenoxy)piperidin-1-yl)pyrazin-2-yl)amino)pyridin-2-yl)phenyl)-2-methylpropanoic Acid] | 0.091
22 | CCOc1ccccc1O[C@@H]1CCCN(c2cncc(Nc3cc(C(F)(F)F)cc(-c4cccc(CC(C)(C)C(=O)O)c4)n3)n2)C1 [Example 110, (R)-3-(3-(6-((6-(3-(2-ethoxyphenoxy)piperidin-1-yl)pyrazin-2-yl)amino)-4-(trifluoromethyl)pyridin-2-yl)phenyl)-2,2-dimethylpropanoic Acid] | 0.17
23 | CCOc1cccnc1O[C@@H]1CCCN(c2cncc(Nc3ncc(C(F)(F)F)c(-c4cccc(CC(C)(C)C(=O)O)c4)n3)n2)C1 [Example 165, (R)-3-(3-(2-((6-(3-((3-ethoxypyridin-2-yl)oxy)piperidin-1-yl)pyrazin-2-yl)amino)-5-(trifluoromethyl)pyrimidin-4-yl)phenyl)-2,2-dimethylpropanoic Acid] | 0.064
